{"source": "patent US20100061928A1", "about": "“LABELLED ANALOGUES OF HALOBENZAMIDES AS RADIOPHARMACEUTICALS” (Institut National De La Sante et De La Recherche Medicale …, priority 2006, published 2010)", "key": {"human melanoma (M4Beu)": {"system": "human melanoma (M4Beu)", "experiment": "Cytotoxicity, Hoechst test, M4Beu", "quoted_text": "(§1) The B16 F0, M4Beu and fibroblast lines are cultured in 75 cm^2 dishes comprising 12 ml of Eagle's essential medium with Earle's salts and Glutamax (Gibco-BRL, Paisley, Scotland) supplemented with 10% foetal calf serum, a solution of vitamins at 1× (Gibco), 1 mM sodium pyruvate (Gibco), a solution of nonessential amino acids at 1× (Gibco) and 4 μg/ml of gentamicin (antibiotic).\n(§2) The cells are maintained at 37° C. in an incubator under an atmosphere comprising 5% CO2.\n(§3) The cells (5×10^3) in 150 μl of culture medium are inoculated in 96-well plates (Nunclon™, Nunc, Roskilde, Denmark). […] The stock solutions (200×) are prepared with DMSO and are then stored at −20° C. 50 μl of a solution comprising stock solution and culture medium are subsequently added to the various wells (taking into account the different dilutions). Each test is carried out in triplicate.\n(§4) The amount of cellular DNA is subsequently measured by the Hoechst test. […] The fluorescence obtained is measured using a Fluoroskan 96-well at the excitation wavelength at 360 nm and emission wavelength at 460 nm. Under these conditions, the fluorescence is proportional to the cell biomass in each well. The percentage of survival is defined by the fluorescence in each well (treated) with respect to the fluorescence of the control wells (drug-free), the blanks being subtracted (drug-free and cell-free wells)."}, "murine melanoma (B16 F0)": {"system": "murine melanoma (B16 F0)", "experiment": "Cytotoxicity, Hoechst test, B16 F0", "settings": "for IC50: read-out: IC50 B16, B16 F0 murine melanoma, 48 hours incubation, Hoechst test", "quoted_text": "as §1, §2, §3\nThe amount of cellular DNA is subsequently measured by the Hoechst test. The plates are then defrosted at ambient temperature for 10 minutes. 100 μl of a 0.01% (w/v) solution of SDS (sodium dodecyl sulphate) in sterile distilled water are subsequently added using a microvolume dispenser. The plates (96 well) are incubated with stirring at ambient temperature for 30 minutes and are then frozen at −80° C. for one hour. The plates are subsequently defrosted at ambient temperature for 20 minutes. […] The plates are then incubated for one hour at ambient temperature, with stirring and with the exclusion of light. The fluorescence obtained is measured using a Fluoroskan 96-well at the excitation wavelength at 360 nm and emission wavelength at 460 nm. Under these conditions, the fluorescence is proportional to the cell biomass in each well. The percentage of survival is defined by the fluorescence in each well (treated) with respect to the fluorescence of the control wells (drug-free), the blanks being subtracted (drug-free and cell-free wells)."}, "[1]": {"system": "human fibroblast cell lines", "experiment": "Cytotoxicity, Hoechst test, human fibroblasts", "settings": "read-out: IC50 Fibroblast; human fibroblasts, 48 hours incubation, Hoechst test", "quoted_text": "as §1, §2, §3, §4"}, "[2]": {"system": "B16 F0 murine melanoma cells", "experiment": "Colony forming technique: chemotherapeutic and radiotherapeutic (^125I) effects in vitro", "assay_type": "cell-based", "settings": "for % of inhibition (Radiotherapeutic effects alone): 125I-labelled, high specific activity", "experimental": "The colony forming technique is involved, that is to say the growth of colonies of clones starting from tumour cells (B16 F0 murine melanoma cells) inoculated at a low concentration. This method makes it possible to visualize the cytotoxic and cytostatic properties of the compounds studied. The study was carried out in three parts:\nThe experiment is carried out on 6-well plates where 200 cells are inoculated in 2 ml of DMEM medium. After 20 hours, the medium is withdrawn and replaced with 2 ml of medium comprising the labelled compound at the desired concentration. This study is carried out in comparison with control wells comprising DMEM medium alone. […] The plates are incubated for 8 days and then the medium is withdrawn. The wells are rinsed with PBS and methanol is added for 3 minutes. Once attached, the cells are coloured with crystal violet with a contact time of 3 minutes. Subsequently, the colonies comprising more than 50 cells are counted using a dedicated counter. The growth of the treated colonies of cells is quantified in comparison with the controls. The activity of the product is expressed by a percentage of inhibition:\n100−[(number of treated colonies)/(number of control colonies)]×100"}, "[3]": {"system": "melanoma grafted subcutaneously (B16 F0 cells)", "experiment": "Antitumour effectiveness by systemic administration after labelling with ^131I", "assay_type": "in vivo, C57BL6 mice", "experimental": "The study relates to 20 C57B16 mice bearing a melanoma grafted subcutaneously by injection of 50 000 B16 F0 cells (0.1 ml). On the 17th day, the animals are weighed and the tumours are measured in two dimensions (L, l), the tumour volume being expressed by L×l^2×½. On the 18th day (D18), the mice are divided into two groups, the labelled compound [^131I]-31 with a high specific activity is administered by the i.v. route (37 MBq; 0.2 ml) to 10 mice and 10 constitute the control batch. The monitoring of the animals is carried out with all the necessary radioprotection measures and in particular the removal of the contaminated bedding, the animals are weighed and the tumours are measured every two days. Taking into account the volume of the tumours and ethical considerations, the surviving animals were euthenized on the 20th day after injection, i.e. 38 days after the tumour graft. […] The evaluation of the effectiveness of an i.v. administration of [^131I]-31 on tumour growth of C57BL6 mice which have received a subcutaneous graft of B 16 melanoma 18 days before treatment is represented in FIG. 2. The times on the abscissa are given with respect to the day of inoculation of the tumours and with respect to the day of treatment.\nThe evaluation of the effectiveness of an i.v. administration of [^131I]-46 on tumour growth of C57BL6 mice which have received a subcutaneous graft of B 16 melanoma is represented in FIG. 3. The times on the abscissa are given with respect to the day of inoculation of the tumours and with respect to the first day of treatment. Under these conditions, the median of survival is extended and changes from 32 days for the control animals to 39 days for the treated animals. This experiment was repeated according to the same protocol and fully superimposable results were obtained."}, "tumour": {"system": "tumour", "experiment": "Dosimetry with regard to the tumour (MIRD programme, extrapolated to ^131I)", "settings": "for Effective period: extrapolated to 131I labelling; for Biological period: from biodistribution data"}, "[4]": {"system": "grafted B16 F0 murine melanoma tumour", "experiment": "Biodistribution of the ^125I-labelled molecules in the melanoma-bearing mouse (autoradiography of whole-body sections)", "quoted_text": "The distribution of the radioactivity of the various compounds in the body (tumour and other organs) is quantified using an Ambis 4000 image analyzer on sections of whole animals. […] All the in vivo experimentation is carried out within the context defined by French legislation relating to animal experimentation.\nThe B16 F0 melanoma cells are provided by the ATCC and cultured in monolayers in culture medium (MEM, Invitrogen) supplemented with 10% foetal calf serum and antibiotics. The cultures are maintained by subculturing after trypsinization. The cells of the first passages are frozen and stored in liquid nitrogen. For the transplanting, the cells in culture at confluence are detached by trypsinization and washed with phosphate buffer (PBS).\nThe distribution of the radioactivity present in the sections is analyzed using an AMBIS 4000 analyzer (Scanalytics, CSPI, San Diego, Calif.), which is a proportional counter with a multiwire chamber validated and calibrated beforehand for the monitoring of iodine in the mouse. The measurements require acquisition times of 1000 minutes. […] The value of radioactivity per unit of surface area (cpm/mm^2) is converted to concentration (kBq/g) and expressed as percentage of the injected dose/g of tissue (% ID/g)."}, "[5]": {"settings": "single i.v. administration 37 MBq on D18 after graft, versus controls"}}, "note": "Where a name gives a salt, the structure may show the parent alone.", "data": [{"smiles": "CN(C)CCNC(=O)c1cccc2cc3ccccc3nc12", "note": "[DACA, reference compound]", "values": [{"measurement": "IC50", "setting": "human melanoma (M4Beu); read-out: IC50 M4Beu, M4Beu human melanoma, 48 hours incubation, Hoechst test", "result": 1800, "unit": "nM"}, {"measurement": "IC50", "setting": "murine melanoma (B16 F0)", "result": 190, "unit": "nM"}, {"measurement": "IC50", "setting": "[1]", "result": 7100, "unit": "nM"}]}, {"smiles": "CCN(CC)CCNC(=O)c1cccc2cc3cccc([125I])c3nc12.Cl.Cl", "note": "[[^125I]-102, [^125I]-N-(2-diethylaminoethyl)-5-iodoacridine-4-carboxamide dihydrochloride]", "values": [{"measurement": "% of inhibition (Radiotherapeutic effects alone)", "setting": "[2]; 1.39 kBq, 8.625 pM", "result": 11, "unit": "%"}, {"measurement": "% of inhibition (Radiotherapeutic effects alone)", "setting": "[2]; 2.78 kBq, 17.25 pM", "result": 14.3, "unit": "%"}, {"measurement": "% of inhibition (Radiotherapeutic effects alone)", "setting": "[2]; 5.55 kBq, 34.5 pM", "result": 40.3, "unit": "%"}, {"measurement": "% of inhibition (Radiotherapeutic effects alone)", "setting": "[2]; 11.1 kBq, 69 pM", "result": 65.5, "unit": "%"}, {"measurement": "% of inhibition (Radiotherapeutic effects alone)", "setting": "[2]; 16.7 kBq, 103.5 pM", "result": 79, "unit": "%"}, {"measurement": "% of inhibition (Radiotherapeutic effects alone)", "setting": "[2]; 22.2 kBq, […]", "result": 96.1, "unit": "%"}, {"measurement": "Cumulative effect (% inhib) (Radiotherapeutic and chemotherapeutic effects)", "setting": "[2]; cold compound 102 at 6.25 nM with [125I]-102 1.39 kBq", "result": 30, "unit": "%"}, {"measurement": "Cumulative effect (% inhib) (Radiotherapeutic and chemotherapeutic effects)", "setting": "[2]; cold compound 102 at 6.25 nM with [125I]-102 2.78 kBq", "result": 37.5, "unit": "%"}, {"measurement": "Cumulative effect (% inhib) (Radiotherapeutic and chemotherapeutic effects)", "setting": "[2]; cold compound 102 at 6.25 nM with [125I]-102 5.55 kBq", "result": 59.5, "unit": "%"}, {"measurement": "Cumulative effect (% inhib) (Radiotherapeutic and chemotherapeutic effects)", "setting": "[2]; cold compound 102 at 6.25 nM with [125I]-102 11.1 kBq", "result": 76.5, "unit": "%"}, {"measurement": "Cumulative effect (% inhib) (Radiotherapeutic and chemotherapeutic effects)", "setting": "[2]; cold compound 102 at 6.25 nM with [125I]-102 16.7 kBq", "result": 89, "unit": "%"}]}, {"smiles": "CCN(CC)CCNC(=O)c1ccc2cc([131I])ccc2n1.Cl.Cl", "note": "[[^131I]-31, [^131I]-N-(2-diethylaminoethyl)-6-iodoquinoline-2-carboxamide dihydrochloride]", "values": [{"measurement": "median of survival (in words)", "setting": "[3]; [5]", "result": "a significant difference regarding the median of survival was not demonstrated"}, {"measurement": "tumour growth (in words)", "setting": "[3]; [5]", "result": "markedly slowed down"}]}, {"smiles": "CCN(CC)CCNC(=O)c1cnc2cc([131I])ccc2n1.Cl", "note": "[[^131I]-46, [^131I]-N-(2-diethylaminoethyl)-6-iodoquinoxaline-2-carboxamide hydrochloride]", "values": [{"measurement": "tumour growth (in words)", "setting": "[3]; two doses of 18.5 MBq i.v., 6 and 10 days after induction of the tumours", "result": "clearly slowed down"}, {"measurement": "median of survival, treated animals", "setting": "[3]; two doses of 18.5 MBq i.v., 6 and 10 days after induction of the tumours, control animals 32 days", "result": 39, "unit": "days"}]}, {"smiles": "COc1cc(NS(C)(=O)=O)ccc1Nc1c2ccccc2nc2ccccc12", "note": "[amsacrine, reference compound]", "values": [{"measurement": "IC50", "setting": "murine melanoma (B16 F0)", "result": 35, "unit": "nM"}]}, {"smiles": "CCN(CC)CCNC(=O)c1cccc2cc3cccc(I)c3nc12", "note": "[compound 102, N-(2-diethylaminoethyl)-5-iodoacridine-4-carboxamide dihydrochloride]", "values": [{"measurement": "cytotoxic activity compared with DACA (in words)", "setting": "murine melanoma (B16 F0); various cell lines studied (B16 F0, M4Beu, fibroblasts)", "result": "greater activity than the parent compound"}, {"measurement": "Effective period", "setting": "tumour", "result": 35.4, "unit": "h"}, {"measurement": "Biological period", "setting": "tumour", "result": 43.3, "unit": "hours"}, {"measurement": "Biodistribution, Mean, GB", "setting": "[4]; 1 H", "result": 281.34}, {"measurement": "Biodistribution, Mean, GB", "setting": "[4]; 6 H", "result": 281.20}, {"measurement": "Biodistribution, Mean, muscle", "setting": "[4]; 1 H", "result": 2.34}, {"measurement": "Biodistribution, Mean, muscle", "setting": "[4]; 3 H", "result": 1.34}, {"measurement": "Biodistribution, Mean, muscle", "setting": "[4]; 6 H", "result": 1.36}]}, {"smiles": "CCN(CC)CCNC(=O)c1cccc2c(Nc3ccc(NS(C)(=O)=O)cc3OC)c3cc(I)ccc3nc12", "note": "[compound 129, N-(2-diethylaminoethyl)-7-iodo-9-(4-methanesulphonamido-2-methoxyanilino)acridine-4-carboxamide dihydrochloride]", "values": [{"measurement": "cytotoxic effectiveness (in words)", "setting": "human melanoma (M4Beu); M4Beu human cells, compared with amsacrine", "result": "best effectiveness with regard to the M4Beu human cells, close to the values obtained for amscrine"}, {"measurement": "Effective period", "setting": "tumour", "result": 88.3, "unit": "h"}, {"measurement": "Biological period", "setting": "tumour", "result": 162.3, "unit": "hours"}, {"measurement": "Biodistribution, Mean, GB", "setting": "[4]; 1 H", "result": 20.19}, {"measurement": "Biodistribution, Mean, GB", "setting": "[4]; 6 H", "result": 166.43}, {"measurement": "Biodistribution, Mean, brain", "setting": "[4]; 1 H", "result": 0.12}, {"measurement": "Biodistribution, Mean, brain", "setting": "[4]; 3 H", "result": 0.03}, {"measurement": "Biodistribution, Mean, muscle", "setting": "[4]; 3 H", "result": 0.48}, {"measurement": "Biodistribution, Mean, muscle", "setting": "[4]; 6 H", "result": 0.44}, {"measurement": "Biodistribution, Mean, thyroid", "setting": "[4]; thyroid, 6 H", "result": 34.81}]}]}
